Row | SMILES | melting point [°C]
1 | COc1cc2sc(-c3ccccn3)nc(=O)c2cc1OC | 236 to 238
2 | CC(=O)Oc1ccc2c3c(cc(Cl)c2c1)-c1cc(F)c(OC(C)=O)cc1CO3 | 194 to 198
3 | Nc1cc(=O)[nH]c(=O)n1-c1ccccc1 | > 280
4 | CC(C)(C)c1nc2cc(N3CCN(c4ccccc4)CC3)c([N+](=O)[O-])cc2s1 | 152 to 155
5 | CCOC(=O)C=C1CSC2=C1SCC=NC2 | 86 to 87
6 | Cc1ccc(NCC2CCN(C(C)C3CC3)CC2)c(C(=O)Nc2ccc(Cl)cn2)c1 (configuration not stated) | 79 to 81
7 | COc1ccc(-c2nc(NC(=O)c3ccccc3)sc2-c2ccnc(NC(=O)c3ccccc3)c2)cc1 | 230 to 233
8 | CCCCCCCCCCOc1cc(OCCCCCCCCCC)cc(N(CC(=O)O)CC(=O)OC)c1 | 61 to 62
9 | Cn1nc(-c2ncc(Cl)cc2F)c(C(F)F)c1OC(F)F | 79 to 81
10 | Cc1ccnc2c1nc(-c1cccnc1N)n2-c1ccc(CC(=O)Nc2cccc(F)c2)cc1 | 241 to 243
11 | CC(C)(C)c1ccccc1N1CCN(C(=O)CCC(=O)NS(C)(=O)=O)CC1 | 89 to 90
12 | CC(C)Cn1c(CNC(=O)OC(C)(C)C)c(-c2ccc(Cl)cc2)c2cc(C(N)=O)ccc2c1=O | 144 to 146
13 | N#Cc1ccc(N2C[C@H](O)C[C@@H]2CO)c2ccccc12 | 146 to 147
14 | COc1ccc2c(c1)C(=O)C(=Cc1nccs1)CO2 | 130 to 132
15 | c1ccc(NN2CCc3ccccc32)cc1 | 182 to 183
16 | COC(=O)/C=C/C(=O)/C=C/c1ccc(OC)cc1 | 54 to 55
17 | CCOC(=O)COc1ccc(N2CCN(S(=O)(=O)c3ncn(C)c3Cl)CC2)cc1 | 148 to 149
18 | O=C(N1CCCC1)C1(N2CCCCC2)CCNCC1 | 144
19 | COCc1cnc2c(NC(=O)c3c(Cl)cccc3Cl)cccc2c1CCl | 164
20 | Cc1nnc(CNC(=O)[C@H](Cc2ccccc2)NC(=O)OCc2ccccc2)n1-c1ccc(Cl)cc1C(=O)c1ccccc1 | 84 to 88
21 | O=C(O)CCCc1cc2cc(Cl)ccc2n1S(=O)(=O)c1ccc2c(c1)CCO2 | 174 to 179
22 | Cc1cc(SC(C)c2ccc3nc(-c4ccc(C(F)(F)F)cc4)sc3c2)ccc1OCC(=O)O (configuration not stated) | 170 to 173
23 | CN(C)C=Nc1c(Cl)cc(N=Cc2c(Cl)cccc2Cl)cc1Cl | 84 to 86
24 | CS(=O)(=O)c1ccc(-c2cn[nH]c(=O)c2-c2ccc(F)cc2)cc1 | 255 to 256
25 | COc1ccc(C=C2NC(=O)NC2=O)cc1 | 242 to 244
26 | CC1(C)Cc2cc(S(N)(=O)=O)ccc2O1 | 157 to 160

Row | SMILES | melting point [°C]
27 | CCCCOC(=O)NCc1cccc(C(=O)C=CN(C)C)c1 | 80 to 82
28 | CSC1=CC2=CN(SC)NN2C(SC)=N1 | 165 to 167
29 | Cn1c(C(F)(F)F)cc(=O)n(-c2ccc(Cl)cc2F)c1=O | 114 to 116
30 | Nc1ncc(CCCCc2ccccc2)c(N)n1 | 126 to 127
31 | O=[N+]([O-])c1cc(F)cc2c(Cl)ccnc12 | 120 to 130
32 | COc1cc(CCc2ccccc2)c(OC)c2c1C(=O)c1ccccc1C2=O | 100
33 | CC=CCn1c(N(C(C)=O)c2cc(C)cc(C)c2)c(CC)c(=O)[nH]c1=O | 218 to 220
34 | O=C1NCCCC12c1ccccc1-c1ccccc12 | > 250
35 | CCn1c2ccccc2c2cc(C(C#N)=C(C#N)c3cc(C(F)(F)F)cc(C(F)(F)F)c3)ccc21 | 180 to 182
36 | COc1cc2c(Nc3ccc(Cl)cc3F)ncnc2cc1OCCSC | 174 to 176
37 | Cc1cccc(NC(=O)NCC(=O)N(CC(=O)OC(C)(C)C)c2ccccc2Nc2ccccc2)c1 | 180
38 | CCc1cc(=O)n(-c2cc(C(=O)OC(C)C)c(Cl)cc2F)c(=O)[nH]1 | 121 to 124
39 | CP(C)(=O)CCCOC(=O)c1ccccc1Nc1ccnc2cc(Cl)ccc12 | 162
40 | COc1cc(C)c(C(=O)c2c(Cl)cccc2Cl)c(O)c1OC | 161
41 | CCOc1ccc(-c2nc(CCC(=O)c3ccccc3OC)cs2)cc1OCC | 68.9 to 69.3
42 | CCc1cc(CCNc2ncnc3c(F)ccc(F)c23)ccc1Oc1cc(C(F)(F)F)ccn1 | 121 to 122
43 | CCc1cc(C#N)ccc1N=C1OCC(C)(C)N1C1CCCC1 | 112 to 114
44 | CC1(C)CC(=O)C(S(=O)CC2CCCCC2)=C(O)C1 (configuration not stated) | 77 to 79.5
45 | Cc1cn(C(C)C(=O)N(C)C)nc1-c1ccc(Cl)c(Cl)c1 (configuration not stated) | 109 to 110
46 | Cc1ccccc1-n1c(CF)nc2ccc([N+](=O)[O-])cc2c1=O | 155 to 158
47 | COc1cc(Nc2c(C#N)cnc3cc4cc(OCCCN5CCOCC5)c(OC)cc4cc23)c(Cl)cc1Cl | 205 to 208
48 | CNc1ccc(N2CCC(C)CC2)c(C(=O)c2ccc(Cl)cc2)c1 | 177
49 | CSc1ccc(C(=O)c2cc(-c3ccc(S(C)(=O)=O)cc3)c(N3CCOCC3)s2)cc1 | 160
50 | COc1cc(O)c(C(=O)C=Cc2ccc3c(c2)OCO3)c(OC)c1 | 162
51 | COc1ccc([C@H](Sc2cc(Cc3ccccc3)ccc2N)[C@@H](O)C(=O)O)cc1 | 155 to 158
52 | O=C(NCc1ccc(Cl)cc1)c1cn(Cc2ccccc2)c2sc(CN3CCOCC3)cc2c1=O | 225 to 226

Row | SMILES | melting point [°C]
53 | COc1ccc2[nH]c3c(c2c1)C1C(=O)NC(=O)C1C(C(=O)OCc1ccccc1)C3 (configuration not stated) | 179 to 181
54 | CCOc1c(C(F)(F)F)cc([N+](=O)[O-])c(Nc2ncc(C(F)(F)F)cc2Cl)c1[N+](=O)[O-] | 106 to 108
55 | O=C(O)C1(CSc2ccc3oc(-c4ccncc4)cc3c2)CCOCC1 | 227
56 | Nc1nc(N)nc(CCC(Cl)(Cl)Cl)n1 | 187 to 188
57 | COc1ccc(-c2nc(Cl)cc(N3CCN(C)CC3)n2)cc1 | 88 to 90
58 | CCCNC(=O)[C@H](C)C[C@H](O)[C@H](CC1CCCCC1)NC(=O)OC(C)(C)C | 115 to 116
59 | CCCCc1nc(CCO)c[nH]1 | 92 to 93
60 | O=S1(=O)c2cccc3cccc(c23)N1CCCN1CCC(CC2CCc3ccccc32)CC1 (configuration not stated) | 183
61 | CC(=O)C(=Cc1ccc([N+](=O)[O-])o1)C(C)=O | 117 to 120
62 | CC(C)N1OCC(=Cc2cc(C(C)(C)C)c(O)c(C(C)(C)C)c2)C1=O | 178 to 180
63 | Cc1ccccc1N(CC(=O)N(C)c1ccccc1)C(=O)CN1C(=O)c2ccccc2C1=O | 120
64 | Cc1c(-c2ncc(Cl)cc2F)nn(C)c1C(=O)O | 194 to 196
65 | CCc1nn(C(C)C)c2cc(C(=O)O)ccc12 | 160 to 163
66 | CN(C(=O)On1cccn1)c1ccccc1 | 63 to 67
67 | CC(C)(C)c1cc(-c2nn(CCC#N)c3ncccc23)cc(C(C)(C)C)c1O | 158 to 160
68 | CCCOc1ccc2c(c1)C(=O)C(C(=O)OC)=C2c1ccc2c(c1)OCO2 | 125 to 126
69 | Cc1nnc(-c2ccccc2)n1-c1ccccc1 | 163
70 | COc1c(C(C)(C)C)cc(SC)cc1C(C)(C)C | 50 to 52
71 | Cc1nc(N2CCCC(CCc3ccccc3)C2=O)sc1C(=O)NCc1ccccc1 (configuration not stated) | 124 to 126
72 | COc1cccc(-c2nc3c(C(N)=O)cccc3[nH]2)c1 | 93 to 94
73 | Nc1cccc(-c2ccc(CCN3CCN(CCc4ccc(F)cc4)CC3)cc2)n1 | 165 to 167
74 | O=C(Nc1cccnc1)N1CCc2ccccc2CC1 | 144 to 146
75 | COc1cc2c(c(OC)c1OC)COc1c(C(F)(F)F)nn(-c3ccc(S(N)(=O)=O)cc3)c1-2 | 130
76 | CNc1nc(Cl)c(Cl)c(N2CCN(C(=O)OC(C)(C)C)CC2)n1 | 129 to 131
77 | O=C(CCC[C@H](O)c1ccc(F)cc1)N1C(=O)OC[C@@H]1c1ccccc1 | 39.7
78 | CC(NC(=O)c1ccc(I)cc1)C(O)c1ccccc1 (configuration not stated) | 209 to 210

Row | SMILES | melting point [°C]
79 | COC(=O)c1ccc2oc(Cl)nc2c1 | 104 to 106
80 | Cc1ccc(C2c3c(C)c(Br)c(C)c(C=O)c3OC2(C)C)cc1 (configuration not stated) | 128 to 130
81 | O=C(NCCCCCCNC(=O)c1ccc(Oc2ccccc2)cc1)c1ccc(Oc2ccccc2)cc1 | 183 to 184
82 | COc1ccc(C(=O)Nc2cccc(C(C)(C)CNC(C)=O)c2)cc1OC | 132 to 134
83 | Cc1nc2ccccn2c(=O)c1CCN1CCN(c2cccc(Cl)c2)CC1 | 112 to 113
84 | C=CCNC(=O)Nc1nn(Cc2ccccc2)cc1C(=O)OCC | 77 to 78
85 | Cc1sc(Nc2cccc(C#N)n2)nc1-c1cn[nH]c1 | 331
86 | CC(C)C1(C)N=C(c2c(C(=O)O)ccc3ccsc23)NC1=O (configuration not stated) | 200 to 202
87 | O=c1cc(-c2nc[nH]n2)oc2ccccc12 | 210
88 | COC(=O)c1cc2cc(O)ccc2o1 | 132 to 133
89 | COc1ccc(S(=O)(=O)N2CCc3cccc(-c4ccccc4)c32)cc1 | 166 to 168
90 | C[C@H](CO)Nc1ccc([N+](=O)[O-])cc1F | 128 to 130
91 | CC(C)(C)CNC=Nc1ccc(-c2c[nH]cn2)cc1Br | 151 to 154
92 | COc1ccc(Nc2ccc3cc(O)ccc3c2)cc1 | 152 to 153
93 | Cc1cccc(NC(=O)NCC(=O)N(CC(=O)N2CCCCCC2)c2ccccc2)c1 | 245
94 | CC(Oc1ccc(F)cc1F)(C(=O)Nc1nc(CC(=O)O)c(Cl)s1)c1ccc(S(C)(=O)=O)cc1 (configuration not stated) | 109 to 111
95 | CC(n1ccnc1)C1(c2ccc(Cl)cc2Cl)SCCS1 (configuration not stated) | 142
96 | Oc1ccc(C(F)(F)F)c2ccccc12 | 132 to 133
97 | CCCC(CO)(CO)CO | 100 to 101
98 | COC(=O)c1ccc(CC23CCCCN2C(=O)N(c2cc(Cl)cc(Cl)c2)C3=O)cc1 (configuration not stated) | 51
99 | NC(=O)c1cnn2c(=O)n(CCCl)nnc12 | 193 to 194
100 | Cc1cn(-c2cc(C#N)cc(C(F)(F)F)c2)cn1 | 127 to 128
101 | CNC(=O)c1cc(-c2ccc(OC)cc2)n[nH]c1=O | 246 to 247
102 | Cn1c(C(F)(F)F)cc(=O)n(-c2ccc3snc(CS(=O)(=O)CC(=O)O)c3c2)c1=O | 215

Reference: a melting point compilation (Tetko et al.; mined from patent text by program, amines drawn as free bases though some values may be those of a salt)
